Reference: patent US20190248739A1 (NEWLINK GENETICS CORPORATION, priority 2015, published 2019)
Where two headings read alike, the source gives them in different places.

Legend:
[1] = human pharmacokinetics of oral indoximod; assay type: in vivo; details: plasma
[2] = indoximod plasma exposure in murine antitumor experiments; assay type: in vivo; details: mice; for exposure: ~500 mg/kg/day or oral 200 mg/kg bid
[3] = hygroscopicity and stability of indoximod and its salts; assay type: physicochemical
[4] = solubility of indoximod and its salts in water, buffers and SGF; assay type: physicochemical
[5] = in-vitro dissolution test of SDD formulations in simulated gastric buffer (GB) and simulated intestinal fluid (SIF); assay type: physicochemical
Description: In this study, SDD formulations were made by two methods: hot process spray dry—formulation solution heated up to 110° C. before spraying dry, and basic spray dry—formulation pH raised up to ˜11.5 (room temperature) before spraying dry. The performance of each SDD formulation was investigated by in-vitro dissolution test in simulated gastric buffer (GB) and simulated intestinal fluid (SIF). […] In addition, higher drug load in the powder was preferred since it could decrease the dose amount of the final formulation. Based on all these criteria, two SDD formulations were selected for further in vivo PK studies in monkeys.

[6] = crossover pharmacokinetic study of indoximod free base, salts and SDD in cynomolgus monkeys; assay type: in vivo; details: male, cynomolgus monkey, plasma, po; for AUC(0-t): oral, read-out: AUC(0 −> 48 h)
Description: The SDD suspension formulations were prepared in 0.5% methylcellulose (Methocel).

[7] = pharmacokinetic testing of indoximod salts in capsule formulation in rats; assay type: in vivo; details: rat, plasma, po, capsules
Description: Three dose levels were investigated: 37, 185 or 500 μmol/kg.
Capsules were manually filled and the composition uniformity of a representative sample of capsules from each batch was verified by weight and by LC-MS/MS to determine the average indoximod content.
(§1) Rats were fasted 16 h prior to dosing to eliminate any confounding food effects, and food was returned 2 h after dosing.

[8] = pharmacokinetic testing of indoximod prodrug salts in solid capsule formulation in rats; assay type: in vivo; details: for % Change Cmax / % Change in AUC: vs indoximod free base
Description: These blends were formulated so that each capsule contained the same molar dose of each prodrug. […] The composition and uniformity of a representative sample of capsules from each batch was verified by weight and by LC-MS/MS to determine the average indoximod or prodrug content.
as §1

[9] = system: ectopic melanoma, colon and lung tumors, breast tumor models; details: cited from earlier work
[10] = pharmacokinetic testing of indoximod prodrugs in liquid formulation in mice; details: for AUC(0-inf) / Cmax / Tmax / half-life: mouse, plasma, po; for % Change in Norm. Cmax / % Increase in Norm AUC: vs indoximod, Mouse, PO solution, salt form FB
Description: Blood samples (0.1-0.2 mL) were collected from the femoral artery port from rats or by retro-orbital bleeding from mice and plasma was immediately collected by centrifugation and stored on dry ice to avoid prodrug hydrolysis after plasma collection. […] The pharmacokinetic parameters reflect the average of individual parameter values obtained from each individual rat (n) or one common parameter from a single pharmacokinetic curve derived from blood samples obtained from a group of mice (n).

[11] = pharmacokinetic testing of indoximod prodrug salts in solid capsule formulation in cynomolgous monkeys
[12] = Table 10.1, rats, oral capsules, dose 37 μmol/kg, salt form free base
[13] = Table 10.1, rats, oral capsules, dose 185 μmol/kg, salt form free base
[14] = Table 10.1, rats, oral capsules, dose 500 μmol/kg, salt form free base
[15] = Table 10.2, indoximod, rats, oral capsules, dose 37 μmol/kg, salt form free base
[16] = Table 10.2, indoximod, rats, oral capsules, dose 185 μmol/kg, salt form free base
[17] = Table 10.2, indoximod, rats, oral capsules, dose 500 μmol/kg, salt form free base
[18] = Table 10.2, rats, oral capsules, dose 37 μmol/kg, salt form free base
[19] = Table 10.2, rats, oral capsules, dose 185 μmol/kg, salt form free base
[20] = Table 10.2, rats, oral capsules, dose 500 μmol/kg, salt form free base
[21] = indoximod, cynomolgous monkeys, oral capsules, dose 275 μmol/kg, salt form free base

With `Cn1cc(C[C@@H](N)C(=O)O)c2ccccc21` [indoximod, 1-methyl-D-tryptophan, reference compound] the Tmax [1] was roughly 3 h, the half-life [1] was roughly 10 h and the AUC(0-t) ([1]; patients, up to 800 mg/dose, read-out: drug exposure (AUC(0-last))) was roughly 100 µM·h. The Cmax ([1]; po, 800 mg/dose, patients, about 800 mg/dose, read-out: maximum plasma concentration (Cmax)) was 15 µM, the AUC(0-inf) ([1]; ~800 mg/dose) was 100 µM·h and the exposure [2] was “greater than 300 μM.h”. The exposure ([2]; listed as Indoximod) was greater than 300 µM·h, the Cmax ([2]; mouse, plasma, drinking water 3 mg/mL (~500 mg/kg/day) or oral 200 mg/kg bid) was greater than 20 µM and the “hygroscopicity (weight gain)” value ([3]; 0-80%RH) was 0.09%. For the same compound, the stability in solution ([3]; 0.1 N HCl and 50 mM phosphate buffers pH 2-8, 25° C., 24 hours) was “stable”, the “chemical stability of the solid powder form” value ([3]; 25° C/60%RH, 40° C., 40° C/75%RH, 60° C. and 70° C. for 4 weeks) was “chemically stable” and the “Hygroscopicity (0-80% RH)” value ([3]; Table 2, listed as Free base, in % (unit assumed)) was 0.09. For the same compound, the “pH of the SGF solution (in brackets)” value ([4]; 25° C., SGF solubility test, listed as Free base) was 2.32, the “Solubility (25° C., mg/mL) SGF” value ([4]; 25° C., SGF, listed as Free base) was 3.6 mg/mL and the “pH of the water solution (in brackets)” value ([4]; 25° C., water solubility test, listed as Free base) was 6.03. For the same compound, the “Solubility (25° C., mg/mL) Water” value ([4]; 25° C., water, listed as Free base) was 1.8 mg/mL, the solubility ([4]; aqueous solutions, buffered or un-buffered, pH 2, aqueous buffer, pH 2-8) was 1800 to 2000 µg/mL and the UltraC90 ([5]; SIF, 90 min, after ultracentrifugation) was 1,849 μg/mL. For the same compound, the UltraC1200 ([5]; SIF, 1200 min, after ultracentrifugation) was 1,854 μg/mL, the CmaxGB ([5]; maximum indoximod concentration, dissolved in GB for 30 min) was 5,154 μg/mL and the Cmax90 ([5]; maximum indoximod concentration, dissolved in SIF for 90 min) was 2,213 μg/mL. It also gave a Cmax ([6]; 275 umol/kg) of 12.9 ± 3.3 µM, an AUC(0-t) ([6]; 275 umol/kg, 275 μmol/kg) of 66 ± 17 µM·h and a Cmax ([6]; 825 umol/kg) of 25.6 ± 12.8 µM. For the same compound, the AUC(0-t) ([6]; 825 umol/kg, 825 μmol/kg) was 127 ± 73 µM·h, the AUC(0-inf) ([7]; 37 umol/kg) was 390 ± 166 µM·h and the AUC(0-inf) ([7]; 185 umol/kg) was 1080 ± 478 µM·h. For the same compound, the Cmax ([7]; 185 umol/kg) was 20.8 ± 4 µM, the AUC(0-inf) ([7]; 500 umol/kg) was 2870 ± 1380 µM·h and the “% Change Cmax” value [8, 12] was 0%. For the same compound, the “% Change in AUC” value [8, 12] was 0%, the “% Change Cmax” value [8, 13] was 0% and the “% Change in AUC” value [8, 13] was 0%. The “% Change Cmax” value [8, 14] was 0%, the “% Change in AUC” value [8, 14] was 0% and the “AUC(0->∞)” value [8, 15] was 390 ± 166 µM·h. The Cmax [8, 15] was 15.9 ± 8 µM, the “AUC(0->∞)” value [8, 16] was 1080 ± 478 µM·h and the Cmax [8, 16] was 20.8 ± 4 µM. The “AUC(0->∞)” value [8, 17] was 2871 ± 1379 µM·h, the Cmax [8, 17] was 76.2 ± 25 µM and the “% Change Cmax” value [8, 18] was 0%. For the same compound, the “% Change in AUC” value [8, 18] was 0%, the “% Change Cmax” value [8, 19] was 0% and the “% Change in AUC” value [8, 19] was 0%. For the same compound, the “% Change Cmax” value [8, 20] was 0%, the “% Change in AUC” value [8, 20] was 0% and the Cmax ([8]; Table 10.3, indoximod, rats, oral capsules, dose 37 μmol/kg, salt form free base) was 15.9 ± 8 µM. It also gave a Cmax ([8]; Table 10.3, indoximod, rats, oral capsules, dose 185 μmol/kg, salt form free base) of 20.8 ± 4 µM, a Cmax ([8]; Table 10.3, indoximod, rats, oral capsules, dose 500 μmol/kg, salt form free base) of 76.2 ± 25 µM and an AUC(0-inf) ([8]; rat, plasma, po, 37 umol/kg) of 390 ± 166 µM·h. It also gave a Cmax ([8]; rat, plasma, po, 37 umol/kg) of 15.9 ± 8 µM, an AUC(0-inf) ([8]; rat, plasma, po, 185 umol/kg) of 1080 ± 478 µM·h and a Cmax ([8]; rat, plasma, po, 185 umol/kg) of 20.8 ± 4 µM. The AUC(0-inf) ([8]; rat, plasma, po, 500 umol/kg) was 2870 ± 1380 µM·h, the Cmax ([8]; rat, plasma, po, 500 umol/kg) was 76.2 ± 25 µM and the antitumor effect ([9]; in combination with chemotherapy) was “demonstrates antitumor effects”. For the same compound, the antitumor effect ([9]; melanoma models, combination with anti-CTLA4 (ipilimumab)) was “synergistic antitumor effect”, the AUC(0-inf) ([10]; 10 mg/kg) was 34 µM·h and the Cmax ([10]; 10 mg/kg) was 9 µM. The Tmax ([10]; 10 mg/kg) was 0.5 h, the half-life ([10]; 10 mg/kg) was 1.8 h and the AUC(0-inf) ([10]; 100 mg/kg) was 325 µM·h. It also gave a Cmax ([10]; 100 mg/kg) of 43 µM, a Tmax ([10]; 100 mg/kg) of 1 h and a half-life ([10]; 100 mg/kg) of 3.5 h. The “% Change in Norm. Cmax” value ([10]; dose 10 mg/kg) was 0%, the “% Increase in Norm AUC” value ([10]; dose 10 mg/kg) was 0% and the “% Change in Norm. Cmax” value ([10]; dose 100 mg/kg) was 0%. The “% Increase in Norm AUC” value ([10]; dose 100 mg/kg) was 0%, the “AUC(0->∞)” value ([11]; indoximod, cynomolgous monkeys, oral capsules, dose 92 μmol/kg, salt form free base) was 38.5 ± 4 µM·h and the “AUC(0->∞)” value [11, 21] was 74.9 ± 5 µM·h. The Cmax [11, 21] was 17.5 ± 3 µM, the Cmax ([11]; monkey, blood, po, 92 umol/kg) was 8.2 ± 0.4 µM and the AUC(0-inf) ([11]; monkey, blood, po, 875 umol/kg) was 165 ± 52 µM·h. For the same compound, the Cmax ([11]; monkey, blood, po, 875 umol/kg) was 27.8 ± 8 µM.
